Measurements: ChEMBL document CHEMBL2401728, “An unexpected Dimroth rearrangement leading to annelated thieno[3,2-d][1,2,3]triazolo[1,5-a]pyrimidines with potent antitumor activity” (Eur J Med Chem, 2013)

How the values were obtained:
Assay type in all cases: functional
UO-31 [1] = assay: Cytotoxicity against human UO31 cells assessed as cellular growth at 10 uM after 48 hrs by SRB assay relative to control
TK-10 [2] = assay: Cytotoxicity against human TK10 cells assessed as cellular growth at 10 uM after 48 hrs by SRB assay relative to control
OVCAR-4 = assay: Cytotoxicity against human OVCAR4 cells assessed as cellular growth at 10 uM after 48 hrs by SRB assay relative to control
SNB-75 = assay: Cytotoxicity against human SNB75 cells assessed as cellular growth at 10 uM after 48 hrs by SRB assay relative to control
KM12 [3] = assay: Cytotoxicity against human KM12 cells assessed as cellular growth at 10 uM after 48 hrs by SRB assay relative to control
HCC 2998 = assay: Cytotoxicity against human HCC2998 cells assessed as cellular growth at 10 uM after 48 hrs by SRB assay relative to control
[4] = Cytotoxicity against human NCI-ADR-RES cells assessed as cellular growth at 0.01 uM after 48 hrs by SRB assay relative to control
OVCAR-8 = assay: Cytotoxicity against human OVCAR8 cells assessed as cellular growth at 0.01 uM after 48 hrs by SRB assay relative to control
SF-539 [5] = assay: Cytotoxicity against human SF539 cells assessed as cellular growth at 0.01 uM after 48 hrs by SRB assay relative to control
NCI-H522 = assay: Cytotoxicity against human NCI-H522 cells assessed as cellular growth at 0.01 uM after 48 hrs by SRB assay relative to control
NCI-H322M = assay: Cytotoxicity against human NCI-H322M cells assessed as cellular growth at 0.01 uM after 48 hrs by SRB assay relative to control
HOP-92 = assay: Cytotoxicity against human HOP92 cells assessed as cellular growth at 0.01 uM after 48 hrs by SRB assay relative to control
SN12C = assay: Cytotoxicity against human SN12C cells assessed as cellular growth at 100 uM after 48 hrs by SRB assay relative to control
UACC-62 = assay: Cytotoxicity against human UACC62 cells assessed as cellular growth at 100 uM after 48 hrs by SRB assay relative to control
SW-620 = assay: Cytotoxicity against human SW620 cells assessed as cellular growth at 100 uM after 48 hrs by SRB assay relative to control
HOP-62 = assay: Cytotoxicity against human HOP62 cells assessed as cellular growth at 100 uM after 48 hrs by SRB assay relative to control
K562 = assay: Cytotoxicity against human K562 cells assessed as cellular growth at 100 uM after 48 hrs by SRB assay relative to control
HL-60(TB) = assay: Cytotoxicity against human HL-60(TB) cells assessed as cellular growth at 100 uM after 48 hrs by SRB assay relative to control
CCRF-CEM = assay: Cytotoxicity against human CCRF-CEM cells assessed as cellular growth at 100 uM after 48 hrs by SRB assay relative to control
Hs-578T = assay: Cytotoxicity against human Hs578T cells assessed as cellular growth at 10 uM after 48 hrs by SRB assay relative to control
DU-145 = assay: Cytotoxicity against human DU145 cells assessed as cellular growth at 1 uM after 48 hrs by SRB assay relative to control
UO-31 [6] = assay: Cytotoxicity against human UO31 cells assessed as cellular growth at 1 uM after 48 hrs by SRB assay relative to control
TK-10 [7] = assay: Cytotoxicity against human TK10 cells assessed as cellular growth at 1 uM after 48 hrs by SRB assay relative to control
M14 [8] = assay: Cytotoxicity against human M14 cells assessed as cellular growth at 1 uM after 48 hrs by SRB assay relative to control
SF-539 [9] = assay: Cytotoxicity against human SF539 cells assessed as cellular growth at 1 uM after 48 hrs by SRB assay relative to control
KM12 [10] = assay: Cytotoxicity against human KM12 cells assessed as cellular growth at 1 uM after 48 hrs by SRB assay relative to control
COLO 205 = assay: Cytotoxicity against human COLO205 cells assessed as cellular growth at 1 uM after 48 hrs by SRB assay relative to control
A549 = assay: Cytotoxicity against human A549 cells assessed as cellular growth at 1 uM after 48 hrs by SRB assay relative to control
SR = assay: Cytotoxicity against human SR cells assessed as cellular growth at 1 uM after 48 hrs by SRB assay relative to control
MDA-MB-468 = assay: Cytotoxicity against human MDA-MB-468 cells assessed as cellular growth at 0.1 uM after 48 hrs by SRB assay relative to control
MCF7 = assay: Cytotoxicity against human MCF7 cells after 48 hrs by SRB assay; conditions: MCF7, 48 h
SK-OV-3 = assay: Cytotoxicity against human SKOV3 cells after 48 hrs by SRB assay; conditions: SK-OV-3, 48 h
M14 [11] = assay: Cytotoxicity against human M14 cells after 48 hrs by SRB assay; conditions: M14, 48 h
KM12 [12] = assay: Cytotoxicity against human KM12 cells after 48 hrs by SRB assay; conditions: KM12, 48 h
RXF 393 = assay: Cytotoxicity against human RXF393 cells assessed as cellular growth at 0.1 uM after 48 hrs by SRB assay relative to control
A498 = assay: Cytotoxicity against human A498 cells assessed as cellular growth at 0.1 uM after 48 hrs by SRB assay relative to control
OVCAR-3 = assay: Cytotoxicity against human OVCAR3 cells assessed as cellular growth at 0.1 uM after 48 hrs by SRB assay relative to control
M14 [13] = assay: Cytotoxicity against human M14 cells assessed as cellular growth at 0.1 uM after 48 hrs by SRB assay relative to control
[14] = Cytotoxicity against human EKVX cells assessed as cellular growth at 0.1 uM after 48 hrs by SRB assay relative to control
[15] = read-out: LC50 (the source's name)
[16] = read-out: pLC50 (the source's name) (converted)

O=C(O)CCCn1c2c(sc3ccccc32)c(=O)n2nnc(-c3ccccc3)c12
Activity (UO-31 [1]): 69.07% | Activity (TK-10 [2]): 98.3% | Activity (OVCAR-4): 93.19% | Activity (SNB-75): 83% | Activity (KM12 [3]): 86.08% | Activity (HCC 2998): 96.03%

O=C(CCCn1c2c(sc3ccccc32)c(=O)n2nnc(-c3ccccc3)c12)NCCc1c[nH]cn1
Activity [4]: 101% | Activity (OVCAR-8): 42% | Activity (SF-539 [5]): 73% | Activity (NCI-H522): 65% | Activity (NCI-H322M): 104% | Activity (HOP-92): 99% | Activity (SN12C): -100% | Activity (UACC-62): -100% | Activity (SW-620): -100% | Activity (HOP-62): -66% | Activity (K562): -100% | Activity (HL-60(TB)): -89% | Activity (CCRF-CEM): -100% | Activity (Hs-578T): -50% | Activity (UO-31 [1]): -97% | Activity (TK-10 [2]): -91% | Activity (OVCAR-4): -92.51% | Activity (SNB-75): -89% | Activity (KM12 [3]): -90% | Activity (HCC 2998): 25.66% | Activity (DU-145): 55% | Activity (UO-31 [6]): 69% | Activity (TK-10 [7]): 121% | Activity (M14 [8]): 33% | Activity (SF-539 [9]): -6% | Activity (KM12 [10]): 39% | Activity (COLO 205): 41% | Activity (A549): 64% | Activity (SR): -18% | Activity (MDA-MB-468): 97% | GI50 (MCF7; read-out: GI50): 1.15 µM | LC50 (MCF7; read-out: LC50): 6.11 µM | TGI (MCF7; read-out: TGI): 2.65 µM | GI50 (MCF7; read-out: pGI50 (converted)): 1.15 µM | LC50 (MCF7; read-out: pLC50 (converted)): 6.17 µM | TGI (MCF7; read-out: pTGI (converted)): 2.63 µM | GI50 (SK-OV-3; read-out: GI50): 2.39 µM | CC50 (SK-OV-3; [15]): 29.2 µM | TGI (SK-OV-3; read-out: TGI): 8.5 µM | GI50 (SK-OV-3; read-out: pGI50 (converted)): 2.4 µM | CC50 (SK-OV-3; [16]): 29.5 µM | TGI (SK-OV-3; read-out: pTGI (converted)): 8.51 µM | GI50 (M14 [11]; read-out: GI50): 0.327 µM | TGI (M14 [11]; read-out: TGI): 2.05 µM | GI50 (M14 [11]; read-out: pGI50 (converted)): 0.324 µM | TGI (M14 [11]; read-out: pTGI (converted)): 2.04 µM | GI50 (KM12 [12]; read-out: GI50): 0.336 µM | CC50 (KM12 [12]; [15]): 4.88 µM | TGI (KM12 [12]; read-out: TGI): 2.01 µM | GI50 (KM12 [12]; read-out: pGI50 (converted)): 0.339 µM | CC50 (KM12 [12]; [16]): 4.9 µM | TGI (KM12 [12]; read-out: pTGI (converted)): 2 µM | Activity (RXF 393): 125% | Activity (A498): 72% | Activity (OVCAR-3): 107% | Activity (M14 [13]): 68% | Activity [14]: 83%

CN1CCN(CCCn2c3c(sc4ncccc43)c(=O)n3nnc(-c4ccccc4)c23)CC1
Activity [4]: 96% | Activity (OVCAR-8): 97% | Activity (SF-539 [5]): 99% | Activity (NCI-H522): 96% | Activity (NCI-H322M): 97% | Activity (HOP-92): 99% | Activity (SN12C): -47% | Activity (UACC-62): -74% | Activity (SW-620): -75% | Activity (HOP-62): -81% | Activity (K562): -29% | Activity (HL-60(TB)): -62% | Activity (CCRF-CEM): -49% | Activity (Hs-578T): 69% | Activity (UO-31 [1]): -90.79% | Activity (TK-10 [2]): -88% | Activity (OVCAR-4): -65% | Activity (SNB-75): 48% | Activity (KM12 [3]): -79% | Activity (HCC 2998): -87% | Activity (DU-145): 95% | Activity (UO-31 [6]): 51% | Activity (TK-10 [7]): 119% | Activity (M14 [8]): 97% | Activity (SF-539 [9]): 90% | Activity (KM12 [10]): 91% | Activity (COLO 205): 86% | Activity (A549): 95% | Activity (SR): 104% | Activity (MDA-MB-468): 95% | GI50 (MCF7; read-out: GI50): 1.53 µM | LC50 (MCF7; read-out: LC50): 5.82 µM | TGI (MCF7; read-out: TGI): 2.99 µM | GI50 (MCF7; read-out: pGI50 (converted)): 1.55 µM | LC50 (MCF7; read-out: pLC50 (converted)): 5.75 µM | TGI (MCF7; read-out: pTGI (converted)): 3.02 µM | GI50 (SK-OV-3; read-out: GI50): 18.7 µM | CC50 (SK-OV-3; [15]): 59.6 µM | TGI (SK-OV-3; read-out: TGI): 33.4 µM | GI50 (SK-OV-3; read-out: pGI50 (converted)): 18.6 µM | CC50 (SK-OV-3; [16]): 60.3 µM | TGI (SK-OV-3; read-out: pTGI (converted)): 33.1 µM | GI50 (M14 [11]; read-out: GI50): 1.87 µM | CC50 (M14 [11]; [15]): 7.16 µM | TGI (M14 [11]; read-out: TGI): 3.66 µM | GI50 (M14 [11]; read-out: pGI50 (converted)): 1.86 µM | CC50 (M14 [11]; [16]): 7.24 µM | TGI (M14 [11]; read-out: pTGI (converted)): 3.63 µM | GI50 (KM12 [12]; read-out: GI50): 1.73 µM | CC50 (KM12 [12]; [15]): 6.71 µM | TGI (KM12 [12]; read-out: TGI): 3.41 µM | GI50 (KM12 [12]; read-out: pGI50 (converted)): 1.74 µM | CC50 (KM12 [12]; [16]): 6.76 µM | TGI (KM12 [12]; read-out: pTGI (converted)): 3.39 µM | Activity (RXF 393): 93% | Activity (A498): 81% | Activity (OVCAR-3): 95% | Activity (M14 [13]): 94% | Activity [14]: 92%
